These results are taken from patent US20110129542A1, “SUBSTITUTED AZEPINE- AND DIAZEPINE-SULFONAMIDES USEFUL TO INHIBIT 11BETA-HYDROXYSTEROID DEHYDROGENASE TYPE-1” (Schering Corporation, priority 2007, published 2011).

The target in one experiment is Mouse 11-β-HSD1 (Mus musculus, UniProt P50172). Briefly: Measurement of 11β-HSD1 activity (SPA, 3H-cortisone, membrane), mouse enzyme. The format is biochemical. The conditions noted are these: 125 nM 3H-cortisone, 3 mM NADPH, 0.5 μg membrane, room temperature 1 hr. Here is the method:
(§1) Measurement of 11β-HSD1 activity
(§2) The reaction was incubated at room temperature for 1 hr before it was stopped by addition of […] containing 20 mM NaPO4 pH 7.5, 30 μM 18β-glycyrrhetinic acid, 1 μg/ml monoclonal anti-cortisol antibody (Biosource) and 2 mg/ml anti-mouse antibody coated scintillation proximity assay (SPA) beads (Amersham Bioscience). The mixture was incubated at room temperature for 2 hrs with vigorous shaking and analyzed on TopCount scintillation counter.

The target of a further experiment is Human 11-β-HSD1 (Homo sapiens, UniProt P28845). The experiment is described as follows: Measurement of 11β-HSD1 activity (SPA, 3H-cortisone, membrane), human enzyme. The conditions noted are these: 125 nM 3H-cortisone, 3 mM NADPH, 0.5 μg membrane, room temperature 1 hr. The format is biochemical. The procedure:
as §1, §2

The structures appear in SMILES notation. Where only a bound is given, the exact number is not on record here.

Mouse 11-β-HSD1, sequence (P50172 whole entry): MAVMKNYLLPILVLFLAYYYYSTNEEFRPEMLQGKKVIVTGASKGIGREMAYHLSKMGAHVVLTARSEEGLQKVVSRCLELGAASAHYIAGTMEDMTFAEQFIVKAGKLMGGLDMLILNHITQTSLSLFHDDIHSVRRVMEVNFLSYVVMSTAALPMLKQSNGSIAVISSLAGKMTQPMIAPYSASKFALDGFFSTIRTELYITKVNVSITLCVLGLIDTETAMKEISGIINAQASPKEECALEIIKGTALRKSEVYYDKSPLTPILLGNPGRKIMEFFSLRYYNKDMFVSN
Human 11-β-HSD1, sequence (P28845 whole entry): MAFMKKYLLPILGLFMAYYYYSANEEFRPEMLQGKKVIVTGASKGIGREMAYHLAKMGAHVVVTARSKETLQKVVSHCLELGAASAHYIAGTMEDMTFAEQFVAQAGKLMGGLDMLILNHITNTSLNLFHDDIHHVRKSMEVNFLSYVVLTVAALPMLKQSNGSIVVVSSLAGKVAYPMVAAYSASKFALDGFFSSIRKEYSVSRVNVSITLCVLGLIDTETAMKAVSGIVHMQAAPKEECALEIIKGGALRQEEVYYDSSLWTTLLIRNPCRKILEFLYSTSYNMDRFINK

In general, IC50 refers to the concentration at which inhibition is half-maximal. Read a high IC50 as a need for much substance. For `COc1ccc(S(=O)(=O)N2CCCC(O)(c3ccccc3)CC2)cc1` (centres unmarked) [Compound 1], the IC50 against Mouse 11-β-HSD1 is 1980 nM; at Human 11-β-HSD1, 1320 nM.

For the molecule `O=S(=O)(c1ccc(Cl)cc1)N1CCCC(O)(c2ccccc2)CC1` (centres unmarked) [Compound 6], the half-inhibitory concentration (IC50) against Mouse 11-β-HSD1 came to 2720 nM; against Human 11-β-HSD1, 1070 nM.

On to `CC(C)(C)c1ccc(S(=O)(=O)N2CCCC(O)CC2)cc1` (centres unmarked) [Compound 11], for which the figures for the IC50 against Mouse 11-β-HSD1 and against Human 11-β-HSD1 were 629 nM and 466 nM, respectively.

As for `COC1CCCN(S(=O)(=O)c2ccc(C(C)(C)C)cc2)CC1` (centres unmarked) [Compound 12], the IC50 came out at 165 nM on Mouse 11-β-HSD1 and 7 nM at Human 11-β-HSD1.

Consider `COC1(C)CCCN(S(=O)(=O)c2ccc(C(C)(C)C)cc2)CC1` (centres unmarked) [Compound 18], for which the IC50 against Mouse 11-β-HSD1 turned out to be 57 nM; against Human 11-β-HSD1, 3 nM.

For `CC(=O)c1ccc(S(=O)(=O)N2CCCC(C)(O)CC2)cc1` (centres unmarked) [Compound 29], the IC50 against Mouse 11-β-HSD1 is more than 10000 nM; against Human 11-β-HSD1 it was 5250 nM.

On to `COc1ccc(S(=O)(=O)N2CCC=C(c3ccccc3)CC2)cc1` [Compound 34], for which the IC50 was 1880 nM at Mouse 11-β-HSD1 and 58 nM on Human 11-β-HSD1.

For the molecule `COc1ccc(S(=O)(=O)N2CC=C(c3ccccc3)CCC2)cc1` [Compound 40], the IC50 came to 1550 nM against Mouse 11-β-HSD1 and 178 nM against Human 11-β-HSD1.

As for `CC(C)(C)c1ccc(S(=O)(=O)N2CCCN(C3CCCC3)CC2)cc1` [Compound 43], the results for the 50% inhibitory concentration (IC50) against Mouse 11-β-HSD1 and against Human 11-β-HSD1 were 263 nM and 30 nM, respectively.

Regarding `CC(=O)N1CCCN(S(=O)(=O)c2ccc(C(C)(C)C)cc2)CC1` [Compound 44], the values for the IC50 at Mouse 11-β-HSD1 and at Human 11-β-HSD1 were 2540 nM and 254 nM, respectively.

As to `CC(C)(C)c1ccc(S(=O)(=O)N2CCCNCC2)cc1` [Compound 45], the IC50 against Mouse 11-β-HSD1 was 2300 nM; against Human 11-β-HSD1, 3740 nM.

In the case of `CC(C)(C)OC(=O)N1CCCN(S(=O)(=O)c2ccc(C(C)(C)C)cc2)CC1` [Compound 46], the IC50 on Mouse 11-β-HSD1 was 2760 nM; against Human 11-β-HSD1, 256 nM.

Take `CC(C)(C)c1ccc(S(=O)(=O)N2CCCN(C3CC4CCC3C4)CC2)cc1` (centres unmarked) [Compound 47]: the IC50 on Mouse 11-β-HSD1 stood at 102 nM; against Human 11-β-HSD1 it was 19 nM.
